Values joined by “and” are separate entries in the source; they are usually repeats but may differ in a detail not shown here. Equal entries are not always repeated.
Target: T1, AKR1C3 (Homo sapiens (Human), UniProt P42330)
Experiment: AKR1C3 inhibition in a cell-based system (HEK293 cells transfected with AKR1C3 expression plasmid, coumberol fluorescence)
Conditions: HEK293 cells transfected with AKR1C3, incubation overnight; repeated lines = independent determinations; read-out: Cellular AKR1C3 inhibition IC50
Procedure: The inhibition of AKR1C3 by the substances described in the present invention was measured in a cell-based assay using […] as substrate for the AKR1C3 (Halim, M., Yee, D. J., and Sames, D., J. AM. CHEM. SOC. 130, 14123-14128 (2008) and Yee, D. J., Balsanek, V., Bauman, D. R., Penning, T. M., and Sames, D., Proc. Natl. Acad. Sci. USA 103, 13304-13309 (2006)) (cf. Example 20).
The cell system used were HEK293 cells (ATCC, USA) (cell culture medium: DMEM, 1.5 g glucose, 10% FCS, PSG). The cells were transfected in an AKR1C3 expression plasmid (pCMV6-AC-AKR1C3, GenBank Accession No. NM_003739.4) overnight (X-tremeGENE HP, Roche). The next morning, the cells were sown in black 96well cell culture plates at a cell density of 40000 cells/well (Greiner Bio-One, Frickenhausen, Germany). After 7 h, the cells were incubated with the test substances (dissolved in 100× concentration in DMSO, final concentration between 10^−11M and 10^−5M) and […] (dissolved in cell culture medium, final concentration 5×10^−6M) overnight. The next morning, the fluorescence of coumberol was measured at 535 nm (excitation at 355 nm) using a suitable measuring instrument (Mithras, from Berthold). The fluorescence intensity was used as a measure of the amount of coumberol formed and thus of the enzyme activity of AKR1C3. The data were normalized (transfected cells without inhibitor, only DMSO=0% inhibition; transfected cells, 10 μM inhibitor EM-1404 [F. Labrie et al. U.S. Pat. No. 6,541,463, 2003]=100% inhibition), and the IC50 values were calculated using a 4-parameter fit.
In the cell-based assay described above, the pharmacological substances claimed were examined for their inhibitory activity on the AKR1C3 enzyme (see Table 2).

T1 sequence (P42330 whole entry): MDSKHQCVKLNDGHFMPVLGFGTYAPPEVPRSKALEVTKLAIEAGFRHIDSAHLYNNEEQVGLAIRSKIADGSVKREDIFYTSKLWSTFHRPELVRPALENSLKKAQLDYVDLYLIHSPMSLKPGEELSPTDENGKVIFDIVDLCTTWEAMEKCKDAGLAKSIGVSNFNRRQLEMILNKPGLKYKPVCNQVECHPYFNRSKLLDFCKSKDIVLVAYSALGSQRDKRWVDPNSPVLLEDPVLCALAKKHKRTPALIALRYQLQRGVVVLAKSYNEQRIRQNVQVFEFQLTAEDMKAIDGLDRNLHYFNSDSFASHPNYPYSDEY

Question: Which IC50 does the source give for `C[C@]12CC[C@@H]3c4ccc(OCC(=O)O)cc4CC[C@H]3[C@@H]1CC=C2c1cncc(F)c1` [Example 3, {[17-(5-Fluoropyridin-3-yl)estra-1,3,5(10),16-tetraen-3-yl]oxy}acetic acid] here?
Answer: 49 nM and 56 nM and 31 nM

Question: With `C[C@]12CC[C@@H]3c4ccc(OCC(=O)O)cc4CC[C@H]3[C@@H]1CC=C2c1cncc(C(F)(F)F)c1` [Example 2, ({17-[5-(Trifluoromethyl)pyridin-3-yl]estra-1,3,5(10),16-tetraen-3-yl}oxy)acetic acid] as the molecule, how does the IC50 read?
Answer: 48 nM and 68 nM

Question: `CC(C)(COc1ccc2c(c1)CC[C@@H]1[C@@H]2CC[C@]2(C)C(c3cncc(F)c3)=CC[C@@H]12)C(=O)O` [Example 8, 3-{[17-(5-Fluoropyridin-3-yl)estra-1,3,5(10),16-tetraen-3-yl]oxy}-2,2-dimethylpropanoic acid] was tested. Which IC50 did it give?
Answer: 170 nM and 220 nM

Target: T1, AKR1C3
Experiment: AKR1C3 enzyme inhibition assay (Coumberone to Coumberol fluorescence)
Type: biochemical
Conditions: recombinant human AKR1C3, 15 min pre-incubation, 90 min at 22° C.; repeated lines = two experimental determinations
Procedure: The AKR1C3-inhibitory activity of the substances of the present invention was measured in the AKR1C3 assay described in the paragraphs below.
Essentially, the enzyme activity is measured by quantification of the Coumberol from Coumberone (Halim, M., Yee, D. J., and Sames, D., J. AM. CHEM. SOC. 130, 14123-14128 (2008) and Yee, D. J., Balsanek, V., Bauman, D. R., Penning, T. M., and Sames, D., Proc. Natl. Acad. Sci. USA 103, 13304-13309 (2006)). In this test, the increase of the highly fluorescent Coumberol by NADPH- (nicotinamide adenine dinucleotide phosphate)-dependent reduction of the non-fluorescent Coumberone by AKR1C3 can be determined.
The enzyme used was recombinant human AKR1C3 (Aldo-keto reductase family 1 member C3) (GenBank Accession No. NM_003739). This was expressed in E. coli as GST (glutathione S transferase) fusion protein and purified by glutathione Sepharose affinity chromatography. The GST was removed by digestion with thrombin and subsequent size exclusion chromatography (Dufort, I., Rheault, P., Huang, X F., Soucy, P., and Luu-The, V., Endocrinology 140, 568-574 (1999)).
For the assay, 50 nl of a 100-fold concentrated solution of the test substance in DMSO were pipetted into a black low-volume 384-well microtiter plate (Greiner Bio-One, Frickenhausen, Germany), 2.0 μl of a solution of AKR1C3 in assay buffer [50 mM potassium phosphate buffer pH 7, 1 mM DTT, 0.0022% (w/v) Pluronic F-127, 0.01% BSA (w/v) and protease inhibitor cocktail (Complete, EDTA-free Protease Inhibitor Cocktail from Roche)] were added and the mixture was incubated for 15 min to allow pre-binding of the substances to the enzyme prior to the enzyme reaction. The enzyme reaction was then started by addition of 3 μl of a solution of NADPH (16.7 μM→final concentration in 5 μl of assay volume is 10 μM) and Coumberone (0.5 μM→final concentration in 5 μl of assay volume is 0.3 μM) in assay buffer, and the resulting mixture was incubated at 22° C. for the reaction time of 90 min. The concentration of the AKR1C3 was adapted to the respective activity of the enzyme preparation and adjusted such that the assay was carried out in the linear range. Typical concentrations were in the region of 1 nM. The reaction was stopped by addition of 5 μl of a stop solution consisting of the inhibitor EM-1404 [F. Labrie et al. U.S. Pat. No. 6,541,463, 2003] (2 μM→final concentration in […] is 1 μM). The fluorescence of the Coumberole was then measured at 520 nm (excitation at 380 nm) using a suitable measuring instrument (Pherastar from BMG Labtechnologies). The intensity of the fluorescence was used as a measure of the amount of Coumberole formed and thus of the enzyme activity of AKR1C3. The data were normalized (enzyme reaction without inhibitor=0% inhibition; all other assay components, but no enzyme=100% inhibition).
As described, the pharmacological substances claimed were examined for their inhibitory activity on the AKR1C3 enzyme (see Table 1). The compounds claimed show a strong inhibition of AKR1C3 in vitro (IC50 values <200 nM) and in most cases even IC50 values <50 nM.

Question: With `CC(Oc1ccc2c(c1)CC[C@@H]1[C@@H]2CC[C@]2(C)C(c3cccnc3)=CC[C@@H]12)C(=O)O` (mixture of isomers) [Example 13, (RS)-2-{[17-(3-Pyridyl)estra-1,3,5(10),16-tetraen-3-yl]oxy}propanoic acid] as the molecule, how does the IC50 read?
Answer: 2.8 nM

Question: For `C[C@]12CC[C@@H]3c4ccc(OCC(=O)O)cc4CC[C@H]3[C@@H]1CC=C2c1cncc(F)c1` [Example 3, {[17-(5-Fluoropyridin-3-yl)estra-1,3,5(10),16-tetraen-3-yl]oxy}acetic acid], which IC50 is on record?
Answer: 16 nM and 8.6 nM

Question: How did the IC50 turn out when `CC(Oc1ccc2c(c1)CC[C@@H]1[C@@H]2CC[C@]2(C)C(c3cncc(F)c3)=CC[C@@H]12)C(=O)O` (mixture of isomers) [Example 10, (RS)-2-{[17-(5-Fluoropyridin-3-yl)estra-1,3,5(10),16-tetraen-3-yl]oxy}propanoic acid] was run?
Answer: 2.7 nM

Question: `C[C@]12CC[C@@H]3c4ccc(OC(C(=O)O)c5ccccc5)cc4CC[C@H]3[C@@H]1CC=C2c1cncc(F)c1` (mixture of isomers) [Example 18, (RS)-{[17-(5-Fluoropyridin-3-yl)estra-1,3,5(10),16-tetraen-3-yl]oxy}(phenyl)acetic acid] was tested. Which IC50 did it give?
Answer: 10 nM

Question: `C[C@]12CC[C@@H]3c4ccc(OCCCO)cc4CC[C@H]3[C@@H]1CC=C2c1cncc(F)c1` [Example 15, 3-{[17-(5-Fluoropyridin-3-yl)estra-1,3,5(10),16-tetraen-3-yl]oxy}propan-1-ol] was tested. Which IC50 did it give?
Answer: 54 nM

Question: For `C[C@]12CC[C@@H]3c4ccc(OCC(=O)O)cc4CC[C@H]3[C@@H]1CC=C2c1cncc(C(F)(F)F)c1` [Example 2, ({17-[5-(Trifluoromethyl)pyridin-3-yl]estra-1,3,5(10),16-tetraen-3-yl}oxy)acetic acid], which IC50 is on record?
Answer: 33 nM and 23 nM

Question: With `C[C@]12CC[C@@H]3c4ccc(OCC(=O)O)cc4CC[C@H]3[C@@H]1CC=C2c1cncnc1` [Example 5, {[17-(Pyrimidin-5-yl)estra-1,3,5(10),16-tetraen-3-yl]oxy}acetic acid] as the molecule, how does the IC50 read?
Answer: 89 nM

Question: For `CCC(Oc1ccc2c(c1)CC[C@@H]1[C@@H]2CC[C@]2(C)C(c3cncc(F)c3)=CC[C@@H]12)C(=O)O` (mixture of isomers) [Example 11, (RS)-2-{[17-(5-Fluoropyridin-3-yl)estra-1,3,5(10),16-tetraen-3-yl]oxy}butanoic acid], which IC50 is on record?
Answer: 2.5 nM

Question: `C[C@]12CC[C@@H]3c4ccc(OCC(=O)O)cc4CC[C@H]3[C@@H]1CC=C2c1cncc(C(=O)O)c1` [Example 6, 5-[3-(Carboxymethoxy)estra-1,3,5(10),16-tetraen-17-yl]nicotinic acid] was tested. Which IC50 did it give?
Answer: 9.2 nM

Question: How did the IC50 turn out when `CCNC(=O)COc1ccc2c(c1)CC[C@@H]1[C@@H]2CC[C@]2(C)C(c3cncc(C(F)(F)F)c3)=CC[C@@H]12` [Example 19, N-Ethyl-2-({17-[5-(trifluoromethyl)pyridin-3-yl]estra-1,3,5(10),16-tetraen-3-yl}oxy)acetamide] was run?
Answer: 53 nM

Question: With `CC(C)(CO)COc1ccc2c(c1)CC[C@@H]1[C@@H]2CC[C@]2(C)C(c3cncc(F)c3)=CC[C@@H]12` [Example 16, 3-{[17-(5-Fluoropyridin-3-yl)estra-1,3,5(10),16-tetraen-3-yl]oxy}-2,2-dimethylpropan-1-ol] as the molecule, how does the IC50 read?
Answer: 124 nM

Question: Which IC50 does the source give for `CC(C)(COc1ccc2c(c1)CC[C@@H]1[C@@H]2CC[C@]2(C)C(c3cncc(F)c3)=CC[C@@H]12)C(=O)O` [Example 8, 3-{[17-(5-Fluoropyridin-3-yl)estra-1,3,5(10),16-tetraen-3-yl]oxy}-2,2-dimethylpropanoic acid] here?
Answer: 12 nM and 11 nM

Question: For `Cc1cc(C2=CC[C@H]3[C@@H]4CCc5cc(OCC(=O)O)ccc5[C@H]4CC[C@]23C)cnn1` [Example 7, {[17-(6-Methylpyridazin-4-yl)estra-1,3,5(10),16-tetraen-3-yl]oxy}acetic acid], which IC50 is on record?
Answer: 1.4 nM

Question: How did the IC50 turn out when `COCC(Oc1ccc2c(c1)CC[C@@H]1[C@@H]2CC[C@]2(C)C(c3cncc(F)c3)=CC[C@@H]12)C(=O)O` (mixture of isomers) [Example 12, (RS)-2-{[17-(5-Fluoropyridin-3-yl)estra-1,3,5(10),16-tetraen-3-yl]oxy}-3-methoxy-propanoic acid] was run?
Answer: 4 nM

Question: With `C[C@]12CC[C@@H]3c4ccc(OCC(O)CO)cc4CC[C@H]3[C@@H]1CC=C2c1cncc(F)c1` (mixture of isomers) [Example 17, (RS)-3-{[17-(5-Fluoropyridin-3-yl)estra-1,3,5(10),16-tetraen-3-yl]oxy}propan-1,2-diol] as the molecule, how does the IC50 read?
Answer: 25 nM

Question: For `Cc1ccc(C2=CC[C@H]3[C@@H]4CCc5cc(OCC(=O)O)ccc5[C@H]4CC[C@]23C)cn1` [Example 4, {[17-(6-Methylpyridin-3-yl)estra-1,3,5(10),16-tetraen-3-yl]oxy}acetic acid], which IC50 is on record?
Answer: 136 nM

Question: Which IC50 does the source give for `C[C@]12CC[C@@H]3c4ccc(OCCCC(=O)O)cc4CC[C@H]3[C@@H]1CC=C2c1cncc(F)c1` [Example 9, 4-{[17-(5-Fluoropyridin-3-yl)estra-1,3,5(10),16-tetraen-3-yl]oxy}butanoic acid] here?
Answer: 42 nM

Question: `CC(Oc1ccc2c(c1)CC[C@@H]1[C@@H]2CC[C@]2(C)C(c3cncc(F)c3)=CC[C@@H]12)C(N)=O` (mixture of isomers) [Example 14, (RS)-2-{[17-(5-Fluoropyridin-3-yl)estra-1,3,5(10),16-tetraen-3-yl]oxy}propanamide] was tested. Which IC50 did it give?
Answer: 20 nM
